Data on five compounds can be found in patent US10487115B2, “Proteinaceous compounds and uses therefor” (UNIVERSITY OF CANBERRA, priority 2016, dated 2019).

Assay [1] relates to cancer stem cell markers (CSV, LSD1p, PKC-θ and PDL1). The assay is described as follows: Expression of cancer stem cell markers in MDA-MB-231 xenograft cells (confocal microscopy, TNFI/TCFI). The conditions noted are these: importinib4759 40 mg/kg, docetaxel 4 mg/kg. Format: in vivo, Balb-c nude mice. How it is done: The effect of Importinib4759 on the expression of cancer stem cell markers in MDA-MB-231 xenograft breast cancer cells from Balb-c nude mice was evaluated using confocal laser scanning microscopy.
MDA-MB-231 xenograft breast cancer cells from Balb-c nude mice were treated and prepared as per the method of Example 7. Test compounds included control (saline), docetaxel (4 mg/kg), importinib4759 (40 mg/kg; synthesized in accordance with Example 1) or a combination of importinib4759 (40 mg/kg) and docetaxel (4 mg/kg). The single cell suspensions were fixed with 3.7% formaldehyde and permeabilized with 2% Triton-X-100 and were then probed with primary mouse antibodies to CSV, primary goat antibodies to PDL1 and primary rabbit antibodies to phosphorylated LSD1 (LSD1p; lysine-specific histone demethylase 1A) or PKC-θ followed by the corresponding secondary antibody conjugated to anti mouse Alexa-Fluor 568, anti-goat Alexa-Fluor 633 or anti-rabbit Alexa-Fluor 488. The cell nucleus was stained with anti-fade DAPI. TNFI (Total Nuclear Fluorescence Intensity) or TCFI (Total Cytoplasmic Fluorescence Intensity) values were calculated for at least 20 individual cells per sample. Data shown represent the mean±SE grouped into time point of collection.

Assay [2] concerns CAF markers (FAP, LSD1 and CCL2). The assay is described as follows: Expression of CAF markers in MDA-MB-231 xenograft cells (confocal microscopy, TNFI/TCFI). It is filed as in vivo, Balb-c nude mice. The conditions noted are these: importinib4759 40 mg/kg, docetaxel 4 mg/kg. How it is done:
(§1) The effect of Importinib4759 on the expression of cancer associated fibroblast (CAF) and macrophage in MDA-MB-231 xenograft breast cancer cells from Balb-c nude mice was evaluated using confocal laser scanning microscopy. MDA-MB-231 xenograft breast cancer cells from Balb-c nude mice were treated and prepared as per the method of Example 7. Test compounds included control (saline), docetaxel (4 mg/kg), importinib4759 (40 mg/kg; synthesized in accordance with Example 1) or a combination of importinib4759 (40 mg/kg) and docetaxel (4 mg/kg). The single cell suspensions were fixed with 3.7% formaldehyde and permeabilized with 2% Triton-X-100 and were then probed with a set of CAF signature antibodies [primary mouse antibodies to FAP (fibroblast activation protein), primary goat antibodies to CCL2 (chemokine (C-C motif) ligand 2) and primary rabbit antibodies to LSD1 (lysine-specific histone demethylase 1A; a target of PKC-θ)] or M1 macrophage markers [primary mouse antibodies to CCR[…] chemokine receptor type 7), primary goat antibodies to CD38 (cluster of differentiation 38) and primary rabbit antibodies to LSD1p (a target of PKC-θ)], followed by the corresponding secondary antibody conjugated to anti mouse Alexa-Fluor 568, anti-goat Alexa-Fluor 633 or anti-rabbit Alexa-Fluor 488. […] TNFI or TCFI values were calculated for at least 20 individual cells per sample. […]

Assay [3] relates to M1 macrophage markers (LSD1p, CCR7 and CD38). The assay is described as follows: Expression of M1 macrophage markers in MDA-MB-231 xenograft cells (confocal microscopy, TNFI/TCFI). To be noted: importinib4759 40 mg/kg, docetaxel 4 mg/kg. It is filed as in vivo, Balb-c nude mice. On the procedure:
as §1

Assay [4] deals with T1, PKC-θ (Homo sapiens, UniProt Q04759).
T1 construct: endogenous in cells; host or cells: MCF7
T1 sequence (Q04759 whole entry): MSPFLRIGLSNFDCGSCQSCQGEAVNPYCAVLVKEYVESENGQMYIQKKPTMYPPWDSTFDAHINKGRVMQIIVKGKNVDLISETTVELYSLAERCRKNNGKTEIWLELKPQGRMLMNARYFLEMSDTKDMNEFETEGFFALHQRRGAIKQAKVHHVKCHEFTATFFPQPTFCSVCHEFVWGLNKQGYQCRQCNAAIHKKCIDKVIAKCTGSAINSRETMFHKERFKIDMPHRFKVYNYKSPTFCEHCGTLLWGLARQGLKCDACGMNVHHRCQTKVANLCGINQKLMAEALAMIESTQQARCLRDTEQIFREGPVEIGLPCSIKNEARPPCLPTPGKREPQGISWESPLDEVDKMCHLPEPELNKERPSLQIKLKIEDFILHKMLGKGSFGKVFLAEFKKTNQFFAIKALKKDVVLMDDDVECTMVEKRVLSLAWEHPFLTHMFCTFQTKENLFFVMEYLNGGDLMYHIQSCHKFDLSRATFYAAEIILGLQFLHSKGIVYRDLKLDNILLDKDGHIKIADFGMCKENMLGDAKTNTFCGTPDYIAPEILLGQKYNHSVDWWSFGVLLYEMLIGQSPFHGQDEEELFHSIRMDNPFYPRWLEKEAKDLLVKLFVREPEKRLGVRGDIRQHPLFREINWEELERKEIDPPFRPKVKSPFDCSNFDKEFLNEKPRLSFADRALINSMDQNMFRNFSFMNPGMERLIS
The assay is described as follows: Nuclear localization of PKC-θ (PKC-θ-phosphor-T538 antibody) in MCF7 cells treated with peptide inhibitors of other PKC isoforms. The conditions noted are these: 50 μM peptide inhibitor 24 hr, PMA 0.65 ng/mL 60 hr, N-myristoylated. It is filed as cell-based. How it is done: nPKC-β1, nPKC-ε and nPKC-δ peptide inhibitors were designed based on the nuclear localization signal of PKC-β1, PKC-ε and PKC-δ respectively. These peptides were synthesized and N-myristoylated using the method of Example 1.
MCF7 cells were pre-seeded overnight on sterile coverslips in 12 well plates with 1 mL of completed DMEM before inhibiting with 50 μM of nPKC-β1, nPKC-ε or nPKC-δ peptide inhibitor respectively for 24 hr. Inhibitors were not removed when MCF7 cells were stimulated with 0.65 ng/mL of PMA for 60 hr. DEPC-water was used for control (test peptides were dissolved in sterile DEPC-water). After washing with DPBS twice, samples on coverslips were fixed with 4% paraformaldehyde for 10 minutes and stained with PKC-θ-phosphor-T538 primary Antibody and conjugated Alexa-488 secondary Antibody. Cell nucleus was stained with anti-fade DAPI. When samples were dried overnight, Nikon fluorescence microscopy was used to take photos. ImageJ software was used for densimetric analysis. Fn/c was calculated using the formula: Fn/c=(nuclear density-background density)/(cytoplasmic density-background density).

The target of assay [5] is T1, PKC-θ. The assay is described as follows: Nuclear translocation of PKC-θ in PMA-stimulated MCF7 cells (immunofluorescence, Fn/c). Format: cell-based. To be noted: 50 μM peptide 24 hr, then PMA 0.65 ng/mL 60 hr, N-myristoylated peptides, p<0.0001 relative to control. How it is done: MCF7 cells were pre-seeded overnight on sterile coverslips in 12 well plates with 1 mL of completed Dulbecco's modified eagle medium (DMEM) before incubating with 50 μM of importinib4759 (synthesized in accordance with Example 1) and importinib4759_O1 (synthesized in accordance with Example 1) for 24 hr. Test peptides were not removed when MCF7 cells were stimulated with 0.65 ng/mL of phorbol 12-myristate 13-acetate (PMA) for 60 hr. Diethylpyrocarbonate (DEPC)-water was used for control (test peptides were dissolved in sterile DEPC-water). After wash with Dulbecco's phosphate buffered saline (DPBS) twice, samples on coverslips were fixed with 4% paraformaldehyde for 10 minutes and stained with PKC-θ (Cat. SC-212), PKC-θ-Phosphor-T538, PKC-β2, PKC-α, Importin α, or Importin 8 primary Antibody respectively and conjugated Alexa-488 secondary Antibody. Cell nucleus was stained with anti-fade 2-(4-amidinophenyl)-6-indolecarbamidine dihydrochloride (DAPI). When samples were dried overnight, Nikon fluorescence microscopy was used to take photos. ImageJ software was used for densimetric analysis. Fn/c was calculated using the formula: Fn/c=(nuclear density-background density)/(cytoplasmic density-background density).

Another assay has as its system MCF7 cells. The assay is described as follows: CD44hiCD24lo cancer stem cell formation in MCF-IM model (FACS). Format: cell-based, human. The conditions noted are these: importinib4759 5004 and 100 μM, importinib4759_O1 2504 and 50 μM, 24 hr before PMA 60 hr, p=0.0079 relative to control. On the procedure: (§2) 5×10^4 MCF7 cells were seeded with 1 mL of complete DMEM in 12 well plates overnight, then importinib4759 (5004 and 100 μM; synthesized in accordance with Example 1) or importinib4759_O1 (2504 and 50 μM; synthesized in accordance with Example 1) were used to treat cells for 24 hr before stimulation with PMA for 60 hr. Samples were harvested by trypsinization followed by washing with DPBS containing 2% heat inactivated foetal bovine serum (HI-FBS). FACS staining were performed using anti-human CD44-APC, anti-human CD24-PE, Hoechst, and anti-human EpCAM antibody cocktails. Data was collected from BD FACSLSR-II flow cytometer. Treestar FlowJo was used for data analysis.

For a further assay, the system named is MDA-MB-231 cells. The assay is described as follows: CD44hiCD24lo cancer stem cells in MDA-MB-231 model (FACS). It is filed as cell-based, human. The conditions noted are these: 50 μM or 100 μM importinib4759, 48 hr, p<0.0001 relative to control. How it is done:
as §2, with “5×10^4 MDA-MB-231” for “5×10^4 MCF7”, “for 48” for “for 24”, “before samples” for “before stimulation with PMA for 60 hr. Samples”, “2% HI-FBS.” for “2% heat inactivated foetal bovine serum (HI-FBS).”, “staining was” for “staining were”

A further assay relates to MDA-MB-231 xenograft. The assay is described as follows: Balb/c-nude MDA-MB-231 xenograft breast cancer model: tumor volume and cancer stem cell proportion. It is filed as in vivo, balb/c-nude mice. On the procedure: A Balb/c-nude MDA-MB-231 xenograft breast cancer model was utilized to determine the effect of the importinib peptides alone and in combination with the chemotherapeutic, docetaxel in comparison to a randomized peptide control.
Five week old balb/c-nude mice (n=5 per test compound) were injected with MDA-MB-231 human breast carcinoma cell suspensions (2×10^6 cells in 25 μL PBS mixed with 25 μL of BD Matrigel Matrix) subcutaneously into the right mammary gland. Test compounds in a saline vehicle [4 mg/kg docetaxel; 8 mg/kg, 40 mg/kg and 60 mg/kg importinib4759 or importinib4759_O1 (synthesized in accordance with Example 1); 4 mg/kg docetaxel with 8 mg/kg importinib4759 or importinib4759_O1; 4 mg/kg docetaxel with 40 mg/kg importinib4759 or importinib4759_O1; 4 mg/kg docetaxel with 60 mg/kg importinib4759 or importinib4759_O1; or randomized peptide control] were injected intraperitoneally. Tumor volume was assessed using calipers daily over a period of five weeks following treatment. Animals were sacrificed after the five week period. Tumor grafts were removed using resection and processed into single cell suspensions. The percentage of cancer stem cells was determined using FACS analysis. FACS staining was performed using anti-human CD44-APC, anti-human CD24-PE, Hoechst, and anti-human EpCAM antibody cocktails. Data was collected from BD FACSLSR-II flow cytometer. Treestar FlowJo was used for data analysis. Significance was determined using a one-way ANOVA or Mann-Whitney T-test.

Ends that are not written are not given here. * marks the point of attachment. Myristoyl = CCCCCCCCCCCCCC(=O)*

Turning to `CC(=O)O[C@@]12CO[C@@H]1C[C@H](O)[C@@]1(C)C(=O)[C@H](O)C3=C(C)[C@@H](OC(=O)[C@H](O)[C@@H](NC(=O)OC(C)(C)C)c4ccccc4)C[C@@](O)([C@@H](OC(=O)c4ccccc4)[C@H]21)C3(C)C` [docetaxel, reference compound], the “expression of cancer stem cell markers (CSV, LSD1p, PKC-θ, PDL1)” value in assay [1] is on record as “increased expression of cancer stem cell markers”. For the same compound, the “expression of CAF markers (FAP, LSD1np, CCL2)” value in assay [2] was “significantly increased the expression of CAF markers”. The “expression of M1 macrophage markers (LSD1p, CCR7, CD38; docetaxel result stated for CCR7 and CD38)” value in assay [3] is “unaffected”.
Take “KKIKPPFKPRIKTKR (Myristoyl-KKIKPPFKPRIKTKR) [nPKC-ε]”: the “effect on nuclear localization of PKC-θ” value with PKC-θ [4] was “had no effect”.
On the same count and under the same terms, the same measure for KRRLEPPFRPKVK [nPKC-δ]: “had no effect”.
In the case of “RKEIDPPFRPKVK-OH (Myristoyl-RKEIDPPFRPKVK-OH; SMILES CCCCCCCCCCCCCC(=O)N[C@@H](CCCNC(=N)N)C(=O)N[C@@H](CCCCN)C(=O)N[C@@H](CCC(=O)O)C(=O)N[C@H](C(=O)N[C@@H](CC(=O)O)C(=O)N1CCC[C@H]1C(=O)N1CCC[C@H]1C(=O)N[C@@H](Cc1ccccc1)C(=O)N[C@@H](CCCNC(=N)N)C(=O)N1CCC[C@H]1C(=O)N[C@@H](CCCCN)C(=O)N[C@H](C(=O)N[C@@H](CCCCN)C(=O)O)C(C)C)[C@@H](C)CC) [Importinib4759, tested N-myristoylated]”, the “blocking of nuclear PKC-θ (nuclear translocation)” value with PKC-θ [5] was “capable of blocking nuclear PKC-θ”. In addition, the “cancer stem cell (CD44hiCD24lo) formation” value with MCF7 cells is “inhibited”. In addition, the “reduction of CD44hiCD24lo cancer stem cells” value in the assay with MDA-MB-231 cells was “Significant reduction of cancer stem cells”. The “cancer stem cell (CD44highCD24low) population in tumor grafts” value in the assay on MDA-MB-231 xenograft (FACS of resected tumor grafts after five weeks) is “significantly abrogating the cancer stem cell population”. Moreover, the “tumor volume in comparison to the control or docetaxel treatment alone” value in the assay on MDA-MB-231 xenograft (intraperitoneal, peptide 8, 40 and 60 mg/kg, docetaxel 4 mg/kg, five weeks) was “abrogating tumor volume”. For the same compound, in the assay on MDA-MB-231 xenograft (intraperitoneal, peptide 8, 40 and 60 mg/kg, docetaxel 4 mg/kg, five weeks, n=5), the “tumor volume over time” value is given as “significantly reduced tumor volume over time”. Moreover, the “expression of cancer stem cell markers (CSV, LSD1p, PKC-θ, PDL1)” value in assay [1] is given as “significantly abrogated expression of cancer stem cell markers”. Also, in assay [2], the “expression of CAF markers (FAP, LSD1np, CCL2)” value was “abrogated expression of CAF markers”. In addition, the “expression of M1 macrophage markers (LSD1p, CCR7, CD38; docetaxel result stated for CCR7 and CD38)” value in assay [3] is listed as “augmented”.
As for “RKEIQPPYKPKAR (Myristoyl-RKEIQPPYKPKAR) [nPKC-β1]”, the “effect on nuclear localization of PKC-θ” value with PKC-θ [4] is listed as “had no effect”.
